Assay results published in PubChem BioAssay (NCI).
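Interpolation was linear, between the two tested concentrations surrounding the appropriate level; five concentrations were tested over 48 hours in 96-well plates. The concentration for full growth arrest is given as TGI.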

Columns and labels:
Test in all cases: NCI tumour cell line growth inhibition, 48 h
SK-OV-3 ovarian = test system: SK-OV-3 ovarian
HCT-15 colon = test system: HCT-15 colon
SNB-19 CNS = test system: SNB-19 CNS
SF-268 CNS = test system: SF-268 CNS
M14 melanoma = test system: M14 melanoma
SF-539 CNS = test system: SF-539 CNS
UACC-257 melanoma = test system: UACC-257 melanoma
NCI-H226 lung = test system: NCI-H226 lung
IGROV1 ovarian = test system: IGROV1 ovarian
HOP-92 NSCLC = test system: HOP-92 NSCLC
DU-145 prostate = test system: DU-145 prostate
SK-MEL-5 melanoma = test system: SK-MEL-5 melanoma
SF-295 CNS = test system: SF-295 CNS
U251 CNS = test system: U251 CNS
CCRF-CEM leukemia = test system: CCRF-CEM leukemia
SW-620 colon = test system: SW-620 colon
MDA-MB-435 = test system: MDA-MB-435
ACHN renal = test system: ACHN renal
NCI-H23 lung = test system: NCI-H23 lung
NCI/ADR-RES ovarian = test system: NCI/ADR-RES ovarian
786-0 renal = test system: 786-0 renal
HL-60(TB) leukemia = test system: HL-60(TB) leukemia
A549 NSCLC = test system: A549 NSCLC
OVCAR-5 ovarian = test system: OVCAR-5 ovarian
RPMI-8226 leukemia = test system: RPMI-8226 leukemia
SNB-75 CNS = test system: SNB-75 CNS
OVCAR-8 ovarian = test system: OVCAR-8 ovarian
MDA-MB-231 breast = test system: MDA-MB-231 breast
NCI-H522 lung = test system: NCI-H522 lung
KM12 colon = test system: KM12 colon
COLO 205 colon = test system: COLO 205 colon
SN12C renal = test system: SN12C renal
BT-549 breast = test system: BT-549 breast
UACC-62 melanoma = test system: UACC-62 melanoma
HT29 colon = test system: HT29 colon
T-47D breast = test system: T-47D breast
TK-10 renal = test system: TK-10 renal
MALME-3M melanoma = test system: MALME-3M melanoma
HS 578T breast = test system: HS 578T breast
CAKI-1 renal = test system: CAKI-1 renal
MCF7 breast = test system: MCF7 breast
PC-3 prostate = test system: PC-3 prostate
RXF 393 renal = test system: RXF 393 renal
EKVX NSCLC = test system: EKVX NSCLC
SK-MEL-2 melanoma = test system: SK-MEL-2 melanoma
HCT-116 colon = test system: HCT-116 colon
NCI-H460 lung = test system: NCI-H460 lung
UO-31 renal = test system: UO-31 renal
MDA-N = test system: MDA-N
HCC-2998 colon = test system: HCC-2998 colon
LOX IMVI melanoma = test system: LOX IMVI melanoma
OVCAR-4 ovarian = test system: OVCAR-4 ovarian
K-562 leukemia = test system: K-562 leukemia
MOLT-4 leukemia = test system: MOLT-4 leukemia
HOP-62 NSCLC = test system: HOP-62 NSCLC
OVCAR-3 ovarian = test system: OVCAR-3 ovarian
A498 renal = test system: A498 renal
SK-MEL-28 melanoma = test system: SK-MEL-28 melanoma

Cc1cc(C)c2cc(N)c(Cl)nc2n1
TGI (SK-OV-3 ovarian): > 100 µM | TGI (HCT-15 colon): > 100 µM | TGI (SNB-19 CNS): > 100 µM | TGI (SF-268 CNS): > 100 µM | TGI (M14 melanoma): > 100 µM | TGI (SF-539 CNS): > 100 µM | TGI (UACC-257 melanoma): > 100 µM | TGI (NCI-H226 lung): > 100 µM | TGI (IGROV1 ovarian): > 100 µM | TGI (HOP-92 NSCLC): > 100 µM | TGI (DU-145 prostate): > 100 µM | TGI (SK-MEL-5 melanoma): > 100 µM | TGI (SF-295 CNS): > 100 µM | TGI (U251 CNS): > 100 µM | TGI (CCRF-CEM leukemia): > 100 µM | TGI (SW-620 colon): > 100 µM | TGI (MDA-MB-435): > 100 µM | TGI (ACHN renal): > 100 µM | TGI (NCI-H23 lung): > 100 µM | TGI (NCI/ADR-RES ovarian): > 100 µM | TGI (786-0 renal): > 100 µM | TGI (HL-60(TB) leukemia): > 100 µM | TGI (A549 NSCLC): > 100 µM | TGI (OVCAR-5 ovarian): > 100 µM | TGI (RPMI-8226 leukemia): > 100 µM | TGI (SNB-75 CNS): > 100 µM | TGI (OVCAR-8 ovarian): > 100 µM | TGI (MDA-MB-231 breast): > 100 µM | TGI (NCI-H522 lung): > 100 µM | TGI (KM12 colon): > 100 µM | TGI (COLO 205 colon): > 100 µM | TGI (SN12C renal): > 100 µM | TGI (BT-549 breast): > 100 µM | TGI (UACC-62 melanoma): > 100 µM | TGI (HT29 colon): > 100 µM | TGI (T-47D breast): > 100 µM | TGI (TK-10 renal): > 100 µM | TGI (MALME-3M melanoma): > 100 µM | TGI (HS 578T breast): > 100 µM | TGI (CAKI-1 renal): > 100 µM | TGI (MCF7 breast): > 100 µM | TGI (PC-3 prostate): > 100 µM | TGI (RXF 393 renal): > 100 µM | TGI (EKVX NSCLC): > 100 µM | TGI (SK-MEL-2 melanoma): > 100 µM | TGI (HCT-116 colon): > 100 µM | TGI (NCI-H460 lung): > 100 µM | TGI (UO-31 renal): > 100 µM | TGI (MDA-N): > 100 µM

CCCc1cc(=O)oc2c3c(c4c(c12)OC(C)(C)CC4)O[C@H](C)[C@@H](C)[C@H]3O
TGI (SK-OV-3 ovarian): 31.7 µM | TGI (HCT-15 colon): 27.5 µM | TGI (SNB-19 CNS): 32.2 µM | TGI (SF-268 CNS): 35.1 µM | TGI (M14 melanoma): 37.2 µM | TGI (SF-539 CNS): 41.9 µM | TGI (UACC-257 melanoma): 28.1 µM | TGI (NCI-H226 lung): 34.2 µM | TGI (IGROV1 ovarian): 30.8 µM | TGI (HCC-2998 colon): 31.8 µM | TGI (HOP-92 NSCLC): 33.3 µM | TGI (DU-145 prostate): 29.8 µM | TGI (SK-MEL-5 melanoma): 29.3 µM | TGI (LOX IMVI melanoma): 31.7 µM | TGI (SF-295 CNS): 32 µM | TGI (U251 CNS): 32.2 µM | TGI (CCRF-CEM leukemia): 33.8 µM | TGI (SW-620 colon): 35.8 µM | TGI (MDA-MB-435): 25.7 µM | TGI (NCI-H23 lung): 30.3 µM | TGI (OVCAR-4 ovarian): 28.6 µM | TGI (K-562 leukemia): 21.1 µM | TGI (MOLT-4 leukemia): 27.8 µM | TGI (NCI/ADR-RES ovarian): 33.1 µM | TGI (786-0 renal): 29.8 µM | TGI (A549 NSCLC): 64 µM | TGI (OVCAR-5 ovarian): 31.6 µM | TGI (RPMI-8226 leukemia): 18.8 µM | TGI (HOP-62 NSCLC): 35.3 µM | TGI (SNB-75 CNS): 31.3 µM | TGI (OVCAR-8 ovarian): 32.6 µM | TGI (MDA-MB-231 breast): 30.9 µM | TGI (OVCAR-3 ovarian): 37.7 µM | TGI (KM12 colon): 28.7 µM | TGI (COLO 205 colon): 33.6 µM | TGI (SN12C renal): 34.3 µM | TGI (BT-549 breast): 26.6 µM | TGI (UACC-62 melanoma): 27.4 µM | TGI (HT29 colon): 22.7 µM | TGI (T-47D breast): 29.8 µM | TGI (MALME-3M melanoma): 37.9 µM | TGI (HS 578T breast): 50.2 µM | TGI (CAKI-1 renal): 35.1 µM | TGI (MCF7 breast): 43.2 µM | TGI (PC-3 prostate): 23.5 µM | TGI (RXF 393 renal): 47.3 µM | TGI (EKVX NSCLC): 26.2 µM | TGI (SK-MEL-2 melanoma): 49.1 µM | TGI (HCT-116 colon): 29.4 µM | TGI (NCI-H460 lung): 41.7 µM | TGI (UO-31 renal): 26.7 µM | TGI (MDA-N): 23.7 µM

O=[N+]([O-])/C(C(Cl)=C(Cl)Cl)=C(\Nc1cccc2ccccc12)Sc1ccccc1
TGI (SK-OV-3 ovarian): > 100 µM | TGI (HCT-15 colon): 33.1 µM | TGI (SNB-19 CNS): 40 µM | TGI (SF-268 CNS): 26 µM | TGI (M14 melanoma): > 100 µM | TGI (SF-539 CNS): 37.4 µM | TGI (UACC-257 melanoma): 42.3 µM | TGI (NCI-H226 lung): 40.4 µM | TGI (HCC-2998 colon): 45.2 µM | TGI (DU-145 prostate): 32 µM | TGI (SF-295 CNS): 37.1 µM | TGI (U251 CNS): 23.4 µM | TGI (CCRF-CEM leukemia): > 100 µM | TGI (SW-620 colon): 24.9 µM | TGI (MDA-MB-435): 33.4 µM | TGI (ACHN renal): 28.1 µM | TGI (NCI-H23 lung): 31.6 µM | TGI (OVCAR-4 ovarian): 35.7 µM | TGI (K-562 leukemia): > 100 µM | TGI (MOLT-4 leukemia): > 100 µM | TGI (NCI/ADR-RES ovarian): 31 µM | TGI (786-0 renal): 38 µM | TGI (A549 NSCLC): 71.6 µM | TGI (OVCAR-5 ovarian): 82.1 µM | TGI (RPMI-8226 leukemia): > 100 µM | TGI (HOP-62 NSCLC): 50.5 µM | TGI (SNB-75 CNS): 43.4 µM | TGI (OVCAR-8 ovarian): 28.6 µM | TGI (MDA-MB-231 breast): 23.4 µM | TGI (OVCAR-3 ovarian): 21.8 µM | TGI (KM12 colon): 32 µM | TGI (COLO 205 colon): 28.7 µM | TGI (SN12C renal): 69.3 µM | TGI (BT-549 breast): 35.4 µM | TGI (UACC-62 melanoma): 24.1 µM | TGI (HT29 colon): > 100 µM | TGI (T-47D breast): 44.8 µM | TGI (A498 renal): 23.5 µM | TGI (MALME-3M melanoma): 31.3 µM | TGI (HS 578T breast): 27.2 µM | TGI (CAKI-1 renal): 29.1 µM | TGI (MCF7 breast): 28 µM | TGI (PC-3 prostate): 27.4 µM | TGI (RXF 393 renal): 26.9 µM | TGI (EKVX NSCLC): 42.2 µM | TGI (SK-MEL-2 melanoma): 30.6 µM | TGI (HCT-116 colon): 56.3 µM | TGI (NCI-H460 lung): > 100 µM | TGI (UO-31 renal): 38.7 µM | TGI (SK-MEL-28 melanoma): 34 µM | TGI (MDA-N): 81 µM
